The CheMixHub viscosity set

Assay: xn = mol fraction of the nth substance listed

CC#N + CCO
viscosity [mPa·s]
Details	293.15 K	298.15 K	303.15 K	308.15 K	313.15 K
101 kPa, x1 = 0.0898	–	0.87	0.736	0.632	–
101 kPa, x1 = 0.187	–	0.71	0.606	0.523	–
101 kPa, x1 = 0.2973	–	0.594	0.518	0.454	–
101 kPa, x1 = 0.396	–	0.517	0.455	0.405	–
101 kPa, x1 = 0.4843	–	0.463	0.409	0.364	–
101 kPa, x1 = 0.5987	–	0.416	0.37	0.334	–
101 kPa, x1 = 0.7114	–	0.376	0.342	0.309	–
101 kPa, x1 = 0.8072	–	0.357	0.325	0.298	–
101 kPa, x1 = 0.9139	–	0.345	0.314	0.29	–
101.3 kPa, x1 = 0.1107	–	0.85	0.779	0.715	0.656
101.3 kPa, x1 = 0.2192	–	0.693	0.642	0.589	0.542
101.3 kPa, x1 = 0.3249	–	0.584	0.545	0.499	0.467
101.3 kPa, x1 = 0.4279	–	0.506	0.473	0.444	0.417
101.3 kPa, x1 = 0.5288	–	0.458	0.428	0.405	0.38
101.3 kPa, x1 = 0.6267	–	0.414	0.391	0.377	0.352
101.3 kPa, x1 = 0.7236	–	0.392	0.366	0.347	0.331
101.3 kPa, x1 = 0.8179	–	0.37	0.349	0.333	0.316
101.3 kPa, x1 = 0.9099	–	0.354	0.336	0.317	0.301
101.33 kPa, x1 = 0.04	1.12	–	–	–	–
101.33 kPa, x1 = 0.1	0.9979	–	–	–	–
101.33 kPa, x1 = 0.12	0.939	–	–	–	–
101.33 kPa, x1 = 0.17	0.9065	–	–	–	–
101.33 kPa, x1 = 0.28	0.7033	–	–	–	–
101.33 kPa, x1 = 0.33	0.6415	–	–	–	–
101.33 kPa, x1 = 0.43	0.5585	–	–	–	–
101.33 kPa, x1 = 0.67	0.4418	–	–	–	–
101.33 kPa, x1 = 0.83	0.4001	–	–	–	–

CCCCCCCCO + CCO
viscosity [mPa·s], 101 kPa
Details	298.15 K	303.15 K	308.15 K	318.15 K
x2 = 0.05	6.909	–	4.994	3.689
x2 = 0.1	6.475	–	4.73	3.51
x2 = 0.1301	–	5.471	–	–
x2 = 0.15	6.058	–	4.466	3.331
x2 = 0.2	5.658	–	4.204	3.154
x2 = 0.243	–	4.607	–	–
x2 = 0.25	5.273	–	3.945	2.979
x2 = 0.3	4.903	–	3.69	2.805
x2 = 0.3339	–	4.001	–	–
x2 = 0.35	4.546	–	3.441	2.634
x2 = 0.4	4.202	–	3.198	2.466
x2 = 0.45	3.871	–	2.961	2.301
x2 = 0.5	3.552	–	2.733	2.14
x2 = 0.5477	–	2.922	–	–
x2 = 0.55	3.245	–	2.512	1.982
x2 = 0.6	2.951	–	2.3	1.828
x2 = 0.65	2.668	–	2.096	1.678
x2 = 0.6979	–	2.169	–	–
x2 = 0.7	2.398	–	1.901	1.532
x2 = 0.75	2.141	–	1.714	1.391
x2 = 0.8	1.897	–	1.535	1.254
x2 = 0.8094	–	1.689	–	–
x2 = 0.85	1.668	–	1.364	1.121
x2 = 0.8948	–	1.362	–	–
x2 = 0.9	1.453	–	1.199	0.9926
x2 = 0.95	1.255	–	1.04	0.8687
x2 = 0.9602	–	1.121	–	–
